The target of the experiment is T1, Human M4 (Homo sapiens, UniProt P08173).
T1 construct: expressed in transfected cells; host or cells: CHO-K1 (ATCC), co-transfected with chimeric G protein Gqi5
T1 sequence (P08173 1-479): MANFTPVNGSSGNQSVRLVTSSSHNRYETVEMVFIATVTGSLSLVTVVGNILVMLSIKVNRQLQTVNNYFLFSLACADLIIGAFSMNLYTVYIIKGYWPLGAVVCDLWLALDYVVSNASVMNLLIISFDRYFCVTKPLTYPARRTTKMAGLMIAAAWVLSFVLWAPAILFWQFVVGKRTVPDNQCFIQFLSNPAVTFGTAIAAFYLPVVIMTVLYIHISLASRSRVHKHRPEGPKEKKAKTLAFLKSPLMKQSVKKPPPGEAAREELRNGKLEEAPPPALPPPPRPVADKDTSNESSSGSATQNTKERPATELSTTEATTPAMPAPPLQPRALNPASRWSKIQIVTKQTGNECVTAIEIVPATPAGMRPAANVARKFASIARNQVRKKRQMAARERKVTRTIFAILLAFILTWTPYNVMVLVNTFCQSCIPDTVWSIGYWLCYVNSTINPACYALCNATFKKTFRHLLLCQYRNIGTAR
Description: mAChR M4 cell-based functional assay (calcium flux, decrease of EC80 acetylcholine response) in M4/Gqi5/CHO-K1 cells. The following applies: CHO-K1 cells with human M4 and Gqi5; for remaining activity at 30 µM: % ACh maximum at 30 μM, read-out: Human M4 Emin; for IC50: antagonist mode: concentration-dependent decrease of response to EC80 acetylcholine. Here is the method:
Human or rat M4 cDNA, along with the chimeric G protein Gqi5, were transfected into Chinese hamster ovary (CHO-K1) cells purchased from the American Type Culture Collection using Lipofectamine2000. M4/Gqi5/CHO cells were grown in Ham's F-12 medium containing 10% heat-inactivated fetal bovine serum (FBS), 20 mM HEPES, 500 μg/mL G418 sulfate, and 200 μg/mL Hygromycin B.
For high throughput measurement of agonist-evoked increases in intracellular calcium, CHO-K1 cells stably expressing muscarinic receptors were plated in growth medium lacking G418 and hygromycin at 15,000 cells/20 μL/well in Greiner 384-well black-walled, tissue culture (TC)-treated, clear-bottom plates (VWR). Cells were incubated overnight at 37° C. and 5% CO2. The next day, cells were washed using an ELX 405 (BioTek) with assay buffer; the final volume was then aspirated to 20 μL. Next, 20 μL of a 2.3 μM stock of Fluo-4/acetoxymethyl ester (Invitrogen, Carlsbad, CA), prepared as a 2.3 mM stock in DMSO and mixed in a 1:1 ratio with 10% (w/v) Pluronic F-127 and diluted in assay buffer, was added to the wells and the cell plates were incubated for 50 min at 37° C. and 5% CO2. Dye was removed by washing with the ELX 405 and the final volume was aspirated to 20 μL. Compound master plates were formatted in a 10 point concentration-response curve (CRC) format (1:3 dilutions) in 100% DMSO with a starting concentration of 10 or 1 mM using a BRAVO liquid handler (Agilent). Test compound CRCs were then transferred to daughter plates (240 nL) using the Echo acoustic plate reformatter (Labcyte, Sunnyvale, CA) and then diluted into assay buffer (40 μL) to a 2× stock using a Thermo Fisher Combi (Thermo Fisher Scientific, Waltham, MA).
Calcium flux was measured using the Functional Drug Screening System (FDSS) 6000 or 7000 (Hamamatsu Corporation, Tokyo, Japan) as an increase in the fluorescent static ratio. Compounds were applied to cells (20 μL, 2×) using the automated system of the FDSS at 2 seconds into the protocol and the data were collected at 1 Hz. At 143 s, 10 μL of an EC20 concentration of the muscarinic receptor agonist acetylcholine was added (5×), followed by the addition of 12 μL of an EC80 concentration of acetylcholine at the 268 s time point (5×). Agonist activity was analyzed as a concentration-dependent increase in calcium mobilization upon compound addition. Positive allosteric modulator activity was analyzed as a concentration-dependent increase in the EC20 acetylcholine response. Antagonist activity was analyzed as a concentration-dependent decrease in the EC80 acetylcholine response; for the purposes of the tables herein, an IC50 (inhibitory concentration 50) was calculated as a concentration-dependent decrease of the response elicited by an EC80 concentration of acetylcholine. Concentration-response curves were generated using a four-parameter logistical equation in XLFit curve fitting software (IDBS, Bridgewater, NJ) for Excel (Microsoft, Redmond, WA) or Prism (GraphPad Software, Inc., San Diego, CA) or the Dotmatics software platform (Dotmatics, Bishop's Stortford, UK).
Compounds were synthesized as described above. Activity (IC50 and Emin) was determined in the mAChR M4 cell-based functional assay as described above and the data are shown in Table 1.

In the case of `Fc1ccc(Cl)c(-c2ccc(NCc3cccc4c3CCN(Cc3ccccn3)C4)nn2)c1` [B4, 6-(2-chloro-5-fluorophenyl)-N-((2-(pyridin-2-ylmethyl)-1,2,3,4-tetrahydroisoquinolin-5-yl)methyl)pyridazin-3-amine], the remaining activity at 30 µM came out at 6% and the half-inhibitory concentration (IC50) came to 288 nM.

As to `Fc1ccc(Cl)c(-c2ccc(NCc3cccc4c3CCN(CCC3CCOCC3)C4)nn2)c1` [B5, 6-(2-chloro-5-fluorophenyl)-N-((2-(2-(tetrahydro-2H-pyran-4-yl)ethyl)-1,2,3,4-tetrahydroisoquinolin-5-yl)methyl)pyridazin-3-amine], the remaining activity at 30 µM was determined as 6% and the IC50 was found to be 87 nM.

Turning to `OC1(CN2CCc3c(CNc4ccc(-c5cc(F)ccc5Cl)nn4)cccc3C2)CCCCC1` [B6, 1-((5-(((6-(2-chloro-5-fluorophenyl)pyridazin-3-yl)amino)methyl)-3,4-dihydroisoquinolin-2(1H)-yl)methyl)cyclohexan-1-ol], the remaining activity at 30 µM came to 6% and the IC50 amounted to 257 nM.

On to `Fc1cc(F)c(F)c(-c2ccc(NCc3cccc4c3CCN(CC3CCOCC3)C4)nn2)c1` [B7, N-((2-((tetrahydro-2H-pyran-4-yl)methyl)-1,2,3,4-tetrahydroisoquinolin-5-yl)methyl)-6-(2,3,5-trifluorophenyl)pyridazin-3-amine], for which the remaining activity at 30 µM came to 11% and the IC50 stood at 616 nM.

For the molecule `Fc1ccc(F)c(-c2ccc(NCc3cccc4c3CCN(CC3CCOCC3)C4)nn2)c1` [B8, 6-(2,5-difluorophenyl)-N-((2-((tetrahydro-2H-pyran-4-yl)methyl)-1,2,3,4-tetrahydroisoquinolin-5-yl)methyl)pyridazin-3-amine], the remaining activity at 30 µM worked out at 8% and the IC50 was 781 nM.

As to `Cn1cc2cc(-c3ccc(NCc4cccc5c4CCN(CC4CCOCC4)C5)nn3)ccc2n1` [B9, 6-(2-methyl-2H-indazol-5-yl)-N-((2-((tetrahydro-2H-pyran-4-yl)methyl)-1,2,3,4-tetrahydroisoquinolin-5-yl)methyl)pyridazin-3-amine], the remaining activity at 30 µM is 8% and the IC50 was found to be 1250 nM.

For the molecule `Cc1ccc(F)cc1-c1ccc(NCc2cccc3c2CCN(CC2CCOCC2)C3)nn1` [B10, 6-(5-fluoro-2-methylphenyl)-N-((2-((tetrahydro-2H-pyran-4-yl)methyl)-1,2,3,4-tetrahydroisoquinolin-5-yl)methyl)pyridazin-3-amine], the remaining activity at 30 µM is 5% and the concentration for half-maximal inhibition (IC50) amounted to 335 nM.

Regarding `CC(=O)Nc1ccc(-c2ccc(NCc3cccc4c3CCN(CC3CCOCC3)C4)nn2)cc1` [B11, N-(4-(6-(((2-((tetrahydro-2H-pyran-4-yl)methyl)-1,2,3,4-tetrahydroisoquinolin-5-yl)methyl)amino)pyridazin-3-yl)phenyl)acetamide], the remaining activity at 30 µM is 12% and the IC50 was found to be 2700 nM.

In the case of `c1ccc(-c2ccc(NCc3cccc4c3CCN(CC3CCOCC3)C4)nn2)cc1` [B12, 6-phenyl-N-((2-((tetrahydro-2H-pyran-4-yl)methyl)-1,2,3,4-tetrahydroisoquinolin-5-yl)methyl)pyridazin-3-amine], the remaining activity at 30 µM is 13% and the IC50 turned out to be 3380 nM.

As to `[2H]C([2H])(C1CCOCC1)N1CCc2c(CNc3ccc(-c4cc(F)ccc4Cl)nn3)cccc2C1` [B13, 6-(2-chloro-5-fluorophenyl)-N-((2-((tetrahydro-2H-pyran-4-yl)methyl-d2)-1,2,3,4-tetrahydroisoquinolin-5-yl)methyl)pyridazin-3-amine], the remaining activity at 30 µM amounted to 4% and the IC50 turned out to be 150 nM.

As to `[2H]C([2H])(C1CCOCC1)N1CCc2c(CNc3ccc(-c4cc(F)cc(F)c4F)nn3)cccc2C1` [B14, N-((2-((tetrahydro-2H-pyran-4-yl)methyl-d2)-1,2,3,4-tetrahydroisoquinolin-5-yl)methyl)-6-(2,3,5-trifluorophenyl)pyridazin-3-amine], the remaining activity at 30 µM came to 5% and the IC50 is 919 nM.

Values taken from patent publication US12516067B2, “Antagonists of the muscarinic acetylcholine receptor M4” (Vanderbilt University, priority 2020, dated 2026).
